Test results as given in article PMC12692861, “Biotin-Linked Ursolic Acid Conjugates as Selective Anticancer Agents and Target-Identification Tools for Cancer Therapy” (Molecules, 2025).

Legend:
Test in all cases: Streptavidin pulldown proteomics (LC-MS/MS), MB49 cells
Type in all cases: binding, murine
Details in all cases: MB-49, 50 µM
[1] = molecular target: Elongation factor 2 (eEF2) (Mus musculus, UniProt P58252)
Procedure: (§1) We used proteomics to identify potential molecular targets of 5c. A pulldown assay with streptavidin-agarose-coated magnetic beads was performed. Briefly, 5637 and MB49 cells were incubated with 50 µM 5c for 10 min and 1 h. After incubation, the cells were rinsed three times with cold phosphate-buffered saline (PBS), and cell lysates were prepared and clarified by centrifugation to remove cellular debris, including nuclei. The clarified lysates were incubated with streptavidin-coated magnetic beads to selectively bind biotinylated contents. Bound proteins were separated from unbound proteins through thorough bead washing. Proteins attached to the beads were eluted and analyzed on an Orbitrap Fusion Tribrid mass spectrometer (Thermo Scientific, New York, NY, USA) coupled with an Ultimate 3000 nano-UPLC system. Samples were trapped on a PepMap100 C18 trap column (5 µm, 0.3 × 5 mm) and separated on a PepMap RSLC C18 column (2 µm, 75 µm × 150 mm) using a gradient from 2 to 40% acetonitrile with 0.1% formic acid over 120 min at […] and 40 °C. MS data were acquired in positive mode using data-dependent acquisition (DDA), with precursor scans at 120,000 FWHM (400–2000 m/z), and MS/MS scans in top-speed mode (3 s cycle) using HCD fragmentation (NCE 32%). Proteins were identified and quantified based on peptide spectral matches (PSMs), and fold enrichment compared to controls was calculated to evaluate interaction strength.
(§2) The 5637 and MB49 cells were cultured and treated with higher concentrations of 5c (50 µM) for short period of times (10 min & 60 min) followed by whole cell lysis (WCL) preparation of both treated and untreated cells using modified RIPA buffer [NaCl (100mM), TrisCl (20mM, pH 7.4), EDTA (10 mM), TritonX-100 (0.5%), Glycerol (5%), Protease inhibitor cocktail (1x)] with gentle continuous rotation. The protein content of each WCL was estimated using Pierce™ BCA Protein Assay kit (Thermo-Scientific # 23225). The 100 µL of resuspended Dynabeads™ MyOne™ Streptavidin C1 (Invitrogen # 65001) were washed with PBST (PBS with 0.01% Tween™20) in a magnet stand as recommended in the manufacturer’s instructions. The washed beads were incubated with 200 µg of each WCL in separate tubes at room temperature for 2 h in a gentle end-over-end mixing. After incubation, beads were washed 3–5 times with PBST (0.01% Tween-20) on a magnetic stand and beads were decanted by after spinning and magnetization. The samples were stored at −80 °C till further analysis using LC-MS/MS by the Proteomics and Mass Spectrometry Core Laboratory of Augusta University.

DNA topoisomerase = system: DNA topoisomerase
Procedure: as §1, §2

[2] = molecular target: T-complex protein 1 subunit theta (Mus musculus, UniProt P42932)
Procedure: as §1, §2

[3] = system: Splicing factor U2AF 65 kDa subunit (U2AF65)
Procedure: as §1, §2

Histone H2A.Z = Histone H2A.Z (Mus musculus, UniProt P0C0S6)
Procedure: as §1, §2

[4] = molecular target: Elongation factor 1-beta (EF1β) (Mus musculus, UniProt O70251)
Procedure: as §1, §2

[5] = molecular target: ATP synthase subunit alpha (Mus musculus, UniProt Q03265)
Procedure: as §1, §2

Filamin-A (FLNA) = Filamin-A (FLNA) (Mus musculus, UniProt Q8BTM8)
Procedure: as §1, §2

[6] = molecular target: Elongation factor 1-gamma (EF1γ) (Mus musculus, UniProt Q9D8N0)
Procedure: as §1, §2

HSC 71 = HSC 71 (Mus musculus, UniProt P63017)
Procedure: as §1, §2

[7] = molecular target: Elongation factor 1-delta (EF1δ) (Mus musculus, UniProt P57776)
Procedure: as §1, §2

[8] = system: Eukaryotic initiation factor 4A (eIF4A)
Procedure: as §1, §2

[9] = molecular target: ATP synthase subunit beta (Mus musculus, UniProt P56480)
Procedure: as §1, §2

[10] = molecular target: Ribosomal L1 domain-containing protein 1 (RSL1D1) (Mus musculus, UniProt Q8BVY0)
Procedure: as §1, §2

[11] = system: Eukaryotic translation initiation factor 2 (eIF2)
Procedure: as §1, §2

[12] = molecular target: D-3-phosphoglycerate dehydrogenase (Mus musculus, UniProt Q61753)
Procedure: as §1, §2

ATP synthase subunit O = ATP synthase subunit O (Mus musculus, UniProt Q9DB20)
Procedure: as §1, §2

[13] = molecular target: Rab-like protein 6 (RABL6) (Mus musculus, UniProt Q5U3K5)
Procedure: as §1, §2

[14] = molecular target: Histone H2A type 2-C (HIST2H2AC) (Mus musculus, UniProt Q64523)
Procedure: as §1, §2

[15] = molecular target: Ras GTPase-activating-like protein IQGAP1 (Mus musculus, UniProt Q9JKF1)
Procedure: as §1, §2

[16] = molecular target: Eukaryotic translation initiation factor 5B (eIF5B) (Mus musculus, UniProt Q05D44)
Procedure: as §1, §2

Chain of Elongation factor 1-delta (EF1δ) (P57776 whole entry): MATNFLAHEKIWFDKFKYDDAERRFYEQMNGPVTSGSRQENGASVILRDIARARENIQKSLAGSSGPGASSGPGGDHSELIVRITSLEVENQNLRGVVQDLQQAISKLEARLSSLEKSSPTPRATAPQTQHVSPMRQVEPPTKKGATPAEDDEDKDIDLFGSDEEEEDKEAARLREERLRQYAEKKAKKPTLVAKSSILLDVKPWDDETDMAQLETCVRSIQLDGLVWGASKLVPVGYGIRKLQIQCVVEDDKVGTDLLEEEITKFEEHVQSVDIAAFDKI
Chain of Histone H2A.Z (P0C0S6 whole entry): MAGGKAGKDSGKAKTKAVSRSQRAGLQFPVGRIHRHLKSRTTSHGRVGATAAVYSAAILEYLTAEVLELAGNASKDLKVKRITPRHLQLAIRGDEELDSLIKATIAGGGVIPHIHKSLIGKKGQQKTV
Chain of D-3-phosphoglycerate dehydrogenase (Q61753 whole entry): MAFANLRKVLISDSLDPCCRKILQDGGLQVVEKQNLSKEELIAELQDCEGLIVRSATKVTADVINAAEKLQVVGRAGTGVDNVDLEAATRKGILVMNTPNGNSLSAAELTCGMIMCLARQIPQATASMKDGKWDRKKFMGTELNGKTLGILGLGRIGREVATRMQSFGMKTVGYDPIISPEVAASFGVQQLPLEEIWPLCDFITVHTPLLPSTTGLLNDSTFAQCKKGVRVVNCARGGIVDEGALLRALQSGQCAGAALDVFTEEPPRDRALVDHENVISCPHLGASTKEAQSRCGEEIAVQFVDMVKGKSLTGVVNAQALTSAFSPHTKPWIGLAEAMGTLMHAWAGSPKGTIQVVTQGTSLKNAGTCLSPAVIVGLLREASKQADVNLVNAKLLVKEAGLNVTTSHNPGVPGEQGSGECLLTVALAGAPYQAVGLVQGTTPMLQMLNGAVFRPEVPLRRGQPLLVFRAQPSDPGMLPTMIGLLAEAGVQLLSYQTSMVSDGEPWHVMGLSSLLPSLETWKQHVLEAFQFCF
Chain of ATP synthase subunit O (Q9DB20 24-213): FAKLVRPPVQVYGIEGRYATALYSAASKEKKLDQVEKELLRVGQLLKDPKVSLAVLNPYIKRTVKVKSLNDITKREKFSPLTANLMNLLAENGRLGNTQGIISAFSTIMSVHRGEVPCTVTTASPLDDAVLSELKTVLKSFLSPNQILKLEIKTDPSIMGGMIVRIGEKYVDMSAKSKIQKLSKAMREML
Chain of Elongation factor 1-beta (EF1β) (O70251 whole entry): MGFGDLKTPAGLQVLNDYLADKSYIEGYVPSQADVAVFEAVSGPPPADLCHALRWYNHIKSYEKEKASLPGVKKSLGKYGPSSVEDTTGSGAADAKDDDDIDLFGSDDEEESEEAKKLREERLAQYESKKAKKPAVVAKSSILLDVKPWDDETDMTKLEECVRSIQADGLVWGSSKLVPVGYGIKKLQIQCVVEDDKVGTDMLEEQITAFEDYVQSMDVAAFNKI
Chain of Ras GTPase-activating-like protein IQGAP1 (Q9JKF1 whole entry): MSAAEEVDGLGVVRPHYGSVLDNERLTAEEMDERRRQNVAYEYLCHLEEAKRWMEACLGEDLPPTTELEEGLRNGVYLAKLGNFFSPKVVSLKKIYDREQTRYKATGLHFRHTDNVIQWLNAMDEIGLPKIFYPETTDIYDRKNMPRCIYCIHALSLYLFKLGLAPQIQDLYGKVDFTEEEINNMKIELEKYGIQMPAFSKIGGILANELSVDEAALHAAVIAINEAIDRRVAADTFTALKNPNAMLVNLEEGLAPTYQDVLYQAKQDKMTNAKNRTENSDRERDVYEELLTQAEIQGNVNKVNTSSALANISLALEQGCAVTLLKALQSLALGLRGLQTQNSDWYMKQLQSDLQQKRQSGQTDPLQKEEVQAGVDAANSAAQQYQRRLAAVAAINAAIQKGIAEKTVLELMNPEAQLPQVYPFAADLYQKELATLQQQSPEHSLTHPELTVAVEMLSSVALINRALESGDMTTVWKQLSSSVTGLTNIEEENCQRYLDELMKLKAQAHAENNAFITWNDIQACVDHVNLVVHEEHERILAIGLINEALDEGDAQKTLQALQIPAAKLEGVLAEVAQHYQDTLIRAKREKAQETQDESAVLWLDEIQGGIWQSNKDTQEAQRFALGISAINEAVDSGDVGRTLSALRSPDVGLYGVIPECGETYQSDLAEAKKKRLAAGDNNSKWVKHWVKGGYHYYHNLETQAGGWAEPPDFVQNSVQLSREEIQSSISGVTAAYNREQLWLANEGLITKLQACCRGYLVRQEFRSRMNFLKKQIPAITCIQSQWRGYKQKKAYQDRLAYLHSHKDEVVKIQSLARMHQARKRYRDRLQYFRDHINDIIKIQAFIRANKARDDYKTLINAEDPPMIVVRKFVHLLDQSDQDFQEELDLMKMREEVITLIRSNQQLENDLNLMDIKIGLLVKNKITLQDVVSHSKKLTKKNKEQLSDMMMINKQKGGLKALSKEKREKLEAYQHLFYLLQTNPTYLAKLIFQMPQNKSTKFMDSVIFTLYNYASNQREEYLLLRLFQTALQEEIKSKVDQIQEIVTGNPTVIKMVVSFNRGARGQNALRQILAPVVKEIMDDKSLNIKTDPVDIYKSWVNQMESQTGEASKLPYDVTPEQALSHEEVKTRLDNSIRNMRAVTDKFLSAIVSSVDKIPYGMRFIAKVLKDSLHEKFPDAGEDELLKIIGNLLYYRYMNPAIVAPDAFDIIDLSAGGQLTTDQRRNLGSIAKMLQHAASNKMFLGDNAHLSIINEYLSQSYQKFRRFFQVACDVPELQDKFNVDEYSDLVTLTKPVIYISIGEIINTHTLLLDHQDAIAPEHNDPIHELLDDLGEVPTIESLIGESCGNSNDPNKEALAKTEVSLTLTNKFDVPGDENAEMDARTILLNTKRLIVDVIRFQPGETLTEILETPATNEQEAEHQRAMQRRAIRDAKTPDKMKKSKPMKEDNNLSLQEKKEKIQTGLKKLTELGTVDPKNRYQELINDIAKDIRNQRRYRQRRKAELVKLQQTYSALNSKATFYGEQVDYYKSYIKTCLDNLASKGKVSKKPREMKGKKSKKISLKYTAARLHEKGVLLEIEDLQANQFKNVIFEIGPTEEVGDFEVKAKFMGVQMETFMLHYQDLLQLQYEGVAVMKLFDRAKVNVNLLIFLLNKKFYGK
Chain of Eukaryotic translation initiation factor 5B (eIF5B) (Q05D44 whole entry): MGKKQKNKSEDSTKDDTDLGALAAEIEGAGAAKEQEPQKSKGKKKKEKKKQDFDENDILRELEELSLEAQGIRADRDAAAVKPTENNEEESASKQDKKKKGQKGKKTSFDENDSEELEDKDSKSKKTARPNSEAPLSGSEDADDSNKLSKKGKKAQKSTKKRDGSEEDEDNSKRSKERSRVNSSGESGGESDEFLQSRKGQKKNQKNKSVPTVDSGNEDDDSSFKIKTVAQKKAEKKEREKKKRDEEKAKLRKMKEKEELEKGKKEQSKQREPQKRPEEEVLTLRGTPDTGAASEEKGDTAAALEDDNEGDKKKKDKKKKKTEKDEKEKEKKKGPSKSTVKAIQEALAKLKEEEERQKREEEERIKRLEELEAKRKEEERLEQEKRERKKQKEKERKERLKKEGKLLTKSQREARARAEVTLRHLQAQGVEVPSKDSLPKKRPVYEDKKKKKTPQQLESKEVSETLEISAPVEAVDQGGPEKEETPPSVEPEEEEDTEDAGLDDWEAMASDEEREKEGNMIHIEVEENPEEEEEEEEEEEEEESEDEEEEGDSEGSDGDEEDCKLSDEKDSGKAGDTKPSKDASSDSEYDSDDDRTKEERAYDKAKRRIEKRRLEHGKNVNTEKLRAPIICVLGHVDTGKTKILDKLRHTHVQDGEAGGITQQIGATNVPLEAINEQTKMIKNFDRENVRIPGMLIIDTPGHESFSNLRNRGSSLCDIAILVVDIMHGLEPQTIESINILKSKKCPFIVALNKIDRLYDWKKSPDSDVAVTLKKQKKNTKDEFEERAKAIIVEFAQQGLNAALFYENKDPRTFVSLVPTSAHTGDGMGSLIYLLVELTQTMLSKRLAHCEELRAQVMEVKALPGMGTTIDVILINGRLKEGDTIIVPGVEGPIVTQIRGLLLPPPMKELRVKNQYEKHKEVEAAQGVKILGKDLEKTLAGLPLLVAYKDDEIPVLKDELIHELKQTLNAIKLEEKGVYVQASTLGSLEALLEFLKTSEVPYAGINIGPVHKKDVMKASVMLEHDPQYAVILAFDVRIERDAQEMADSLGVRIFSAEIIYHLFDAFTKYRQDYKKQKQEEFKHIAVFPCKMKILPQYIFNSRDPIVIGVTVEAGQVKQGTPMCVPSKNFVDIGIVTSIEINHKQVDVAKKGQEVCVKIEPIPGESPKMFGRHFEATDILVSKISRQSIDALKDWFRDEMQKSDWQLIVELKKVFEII
Chain of HSC 71 (P63017 whole entry): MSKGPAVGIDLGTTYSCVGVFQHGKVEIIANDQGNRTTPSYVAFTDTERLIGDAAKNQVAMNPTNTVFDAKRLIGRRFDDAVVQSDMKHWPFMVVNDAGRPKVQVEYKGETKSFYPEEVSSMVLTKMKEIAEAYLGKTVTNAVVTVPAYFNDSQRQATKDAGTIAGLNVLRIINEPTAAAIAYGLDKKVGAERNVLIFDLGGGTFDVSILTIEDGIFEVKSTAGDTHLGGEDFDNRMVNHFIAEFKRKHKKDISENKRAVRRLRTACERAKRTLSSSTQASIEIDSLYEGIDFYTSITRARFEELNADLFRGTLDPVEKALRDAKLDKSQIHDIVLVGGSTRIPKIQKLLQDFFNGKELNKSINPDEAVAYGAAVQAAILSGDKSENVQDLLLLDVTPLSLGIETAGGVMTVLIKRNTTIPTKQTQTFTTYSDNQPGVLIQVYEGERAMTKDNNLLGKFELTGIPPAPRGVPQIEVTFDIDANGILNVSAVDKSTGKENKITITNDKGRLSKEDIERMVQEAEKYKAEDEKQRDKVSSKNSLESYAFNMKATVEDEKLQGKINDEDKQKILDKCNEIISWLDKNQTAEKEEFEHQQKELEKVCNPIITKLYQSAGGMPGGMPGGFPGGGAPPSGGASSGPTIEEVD

- Fold Change 10 min/Ctrl [1]: 3
- Fold Change 1 h/Ctrl [1]: 2
- Fold Change 10 min/Ctrl [2]: 2
- Fold Change 1 h/Ctrl [2]: 3
- Fold Change 10 min/Ctrl (Histone H2A.Z): 1.86
- Fold Change 1 h/Ctrl (Histone H2A.Z): 1.20
- Fold Change 10 min/Ctrl [4]: 5
- Fold Change 1 h/Ctrl [4]: 5
- Fold Change 10 min/Ctrl [5]: 1.26
- Fold Change 1 h/Ctrl [5]: 1.26
- Fold Change 10 min/Ctrl (Filamin-A (FLNA)): 3.33
- Fold Change 1 h/Ctrl (Filamin-A (FLNA)): 4
- Fold Change 1 h/Ctrl [6]: 1
- Fold Change 10 min/Ctrl (HSC 71): 1.5
- Fold Change 1 h/Ctrl (HSC 71): 2
- Fold Change 10 min/Ctrl [7]: 1.4
- Fold Change 1 h/Ctrl [7]: 2
- Fold Change 10 min/Ctrl [9]: 1.31
- Fold Change 1 h/Ctrl [9]: 1.82
- Fold Change 10 min/Ctrl [10]: 1.33
- Fold Change 1 h/Ctrl [10]: 1.56
- Fold Change 10 min/Ctrl [12]: 0.8
- Fold Change 1 h/Ctrl [12]: 1.6
- Fold Change 10 min/Ctrl (ATP synthase subunit O): 4
- Fold Change 1 h/Ctrl (ATP synthase subunit O): 5
- Fold Change 10 min/Ctrl [13]: 3
- Fold Change 1 h/Ctrl [13]: 5.5
- Fold Change 10 min/Ctrl [14]: 1.58
- Fold Change 1 h/Ctrl [14]: 1.27
- Fold Change 10 min/Ctrl [15]: 1
- Fold Change 1 h/Ctrl [15]: 3
- Fold Change 10 min/Ctrl [16]: 3
- Fold Change 1 h/Ctrl [16]: 2.75
SMILES: CC1CCC2(C(=O)OCCCCOC(=O)CCCCC3SCC4NC(=O)NC43)CCC3(C)C(=CCC4C5(C)CCC(O)C(C)(C)C5CCC43C)C2C1C [Compound 5c, 4-((5-((3aS,4S,6aR)-2-Oxohexahydro-1H-thieno [3,4-d]imidazol-4-yl)pentanoyl)oxy) butyl 3-hydroxy-urs-12-en-28-oate]
- Fold Change 10 min/Ctrl (DNA topoisomerase): 1
- Fold Change 1 h/Ctrl (DNA topoisomerase): 1.75
- Fold Change 10 min/Ctrl [3]: 4
- Fold Change 1 h/Ctrl [3]: 3
- Fold Change 10 min/Ctrl [8]: 1
- Fold Change 1 h/Ctrl [8]: 3
- Fold Change 10 min/Ctrl [11]: 2
- Fold Change 1 h/Ctrl [11]: 0
